Measurements published in publication PMC9002018, “The Antimicrobial Peptide MPX Can Kill Staphylococcus aureus, Reduce Biofilm Formation, and Effectively Treat Bacterial Skin Infections in Mice” (Frontiers in Veterinary Science, 2022).
Where no end group is shown, it is not given here.

Key:
S. aureus ATCC 25923 [1] = experiment: Agar diffusion test of antibacterial activity; format: cell-based, Staphylococcus aureus; details: 1 mg/mL MPX, 20 μL per well, overnight at 37°C; sterile water control had no zone
Experimental: The agar diffusion test was used to detect the antibacterial effect of MPX on S. aureus ATCC 25923. S. aureus ATCC 25923 was cultured overnight, and the supernatant was discarded by centrifugation. The bacteria were washed with sterile PBS, and resuspended in a smaller volume to concentrate the cells. Next, 50 μL of the bacterial solution was pipetted into 15 mL of agar and shaken gently to mix. The plate was poured, a puncher was used to make holes after the agar medium had solidified and 20 μL of 1 mg/mL MPX was added to the wells. Sterile water was used as a control. The plates were incubated overnight at 37°C and the results were observed.

S. aureus ATCC 25923 [2] = experiment: Time-killing curve (OD600 and plate counting); format: cell-based, Staphylococcus aureus; details: 37°C
Experimental: S. aureus was cultivated, the OD600 of the bacterial solution was adjusted to approximately 1.0, and MPX (1×MIC, 4×MIC) was added. In addition, sterile water was used as a control. The samples were incubated with shaking at 37°C. The OD600 value of the bacterial solution was measured every 1 h, and plate counting was performed at the same time to obtain the antibacterial time-killing curve of MPX against S. aureus ATCC 25923 ([15]).

S. aureus [3] = experiment: Stability to salt ions, pH, temperature and repeated freezing and thawing, read by agar diffusion; format: physicochemical, Staphylococcus aureus; details: n = 3
Experimental: […] Solutions with different pH values were prepared with HCl and NaOH, producing pH values of 4, 5, 6, 7, 8, 9, 10, and MPX was incubated in these solutions for 30 min. MPX solutions were also incubated at different temperatures for 30 min (0, 25, 50, 75, and 100°C). A 1 mg/mL MPX solution was repeatedly frozen and thawed 0, 2, 4, 6, 8, 10, and 12 times. Ten microlitres of each of the peptide solutions treated as described above was collected, and the changes in the antimicrobial activity of the AMPs were detected by the agar diffusion assay.

proteinase K = proteinase K (Parengyodontium album, UniProt P06873); experiment: Protease stability assay with proteinase K, read by agar diffusion; format: in vitro ADME; details: MPX 1.3 μM, 37°C, 30 min
Chain of proteinase K (P06873 106-384, species assumed): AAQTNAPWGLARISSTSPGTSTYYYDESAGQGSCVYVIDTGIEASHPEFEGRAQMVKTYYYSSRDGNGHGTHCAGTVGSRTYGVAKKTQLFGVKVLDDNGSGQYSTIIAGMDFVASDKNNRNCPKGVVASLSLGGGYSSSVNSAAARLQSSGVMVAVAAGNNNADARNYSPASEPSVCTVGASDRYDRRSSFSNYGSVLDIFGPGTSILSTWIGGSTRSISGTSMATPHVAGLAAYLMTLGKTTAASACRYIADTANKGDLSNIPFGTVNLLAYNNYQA
Experimental: (§1) An MPX protease stability assay was performed in the following manner. MPX (1.3 μM) was mixed with equal volumes of proteinase K and trypsin at different concentrations. After incubating at 37°C for 30 min, the samples were incubated in a boiling water bath for 5 min to stop the protease reaction. The protease stability of MPX was detected by the agar diffusion assay.

trypsin = experiment: Protease stability assay with trypsin, read by agar diffusion; format: in vitro ADME; details: MPX 1.3 μM, 37°C, 30 min
Experimental: as §1

S. aureus ATCC 25923 [4] = experiment: BCA protein assay of bacterial supernatant (protein leakage); format: cell-based, Staphylococcus aureus; details: MPX (1×MIC, 4×MIC) for 5 min, BCA kit, P < 0.01, n = 3
Experimental: S. aureus was cultured overnight, washed and resuspended in sterile PBS. MPX (1×MIC, 4×MIC) was added to the bacterial solution. Sterile water was added as a control. A peptide-only group was a negative control. The mixture was allowed to stand for 5 min, and the supernatant was collected after centrifugation. The effect of MPX on the permeability of S. aureus ATCC 25923 for protein was analyzed according to the instructions of the BCA kit.

S. aureus ATCC 25923 [5] = experiment: NPN uptake (membrane integrity); format: cell-based, Staphylococcus aureus; details: MPX 0.02 μM (1×MIC), NPN 10 μM, ex 350 nm / em 420 nm, 0–10 min; comparator ampicillin 50 μg/mL
Experimental: S. aureus ATCC 25923 was cultured overnight in a 96-well plate. An NPN solution was added to a final concentration of 10 μM. The solutions were mixed well and incubated for 20 min. MPX (1×MIC, 4×MIC) was added to the wells. Sterile water was used as the control, and ampicillin (Amp) ([…]/50 μg/mL) was used as the positive control. The excitation wavelength was 350 nm, the emission wavelength was 420 nm, and the fluorescence intensity was detected by a microplate reader ([13]).

S. aureus ATCC 25923 [6] = experiment: DiSC3-5 assay for membrane potential; format: cell-based, Staphylococcus aureus; details: MPX 1×MIC
Experimental: Overnight-cultured S. aureus ATCC 25923 was centrifuged and resuspended in sterile PBS. A DiSC3-5 solution was added to a final concentration of 1 μM. The cells were incubated in the dark for 20 min. MPX (1×MIC, 2×MIC and 4×MIC) was added. Sterile water was used as the control, and AMP ([…]/50 μg/mL) was used as the positive control. The excitation wavelength was 622 nm, the emission wavelength was 670 nm, and the fluorescence intensity was detected by a microplate reader.

S. aureus [7] = experiment: Propidium iodide uptake (fluorescence microscopy); format: cell-based, Staphylococcus aureus; details: MPX 4×MIC for 0.5 h, compared with group without peptide
Experimental: S. aureus was centrifuged, washed, and resuspended in sterile PBS. MPX (4×MIC) was added to the bacterial solution. The bacteria were cultured with shaking at 37°C and then centrifuged and resuspended in PBS solution. The cells were incubated with propidium iodide (PI) stain for 10 min in the dark. The suspension was fixed on a clean glass slide and observed with a fluorescence microscope.

[8] = tested on: S. aureus ATCC 25923 biofilm; experiment: Crystal violet assay of biofilm formation; format: cell-based, Staphylococcus aureus; details: MPX 0.5×MIC, 24 h at 37°C, p < 0.01, n = 3
Experimental: An overnight culture of S. aureus was inoculated into a 96-well polystyrene microtiter plate at a ratio of 1%. MPX (0.25×MIC, 0.5×MIC and 1×MIC) was added to the wells. Sterile water was used as a control. The plates were incubated at 37°C for 24 h. The microplates were then washed 3 times with sterile PBS, and the cells were fixed with 70% methanol for 30 min. Then, the cells were stained with 1% Hucker crystal violet staining solution at room temperature for 5 min. The dyeing solution was aspirated, and the cells were rinsed with water until no color remained. Images were acquired after drying. Then, 100 μL of a 70% ethanol solution was added to each well to dissolve the residual dye, and a microplate reader was used to measure the absorbance at OD570 nm ([16]).

[9] = tested on: S. aureus ATCC 25923 biofilm; experiment: Biofilm observation by SEM and confocal laser microscopy (SYTO 9/PI); format: cell-based, Staphylococcus aureus; details: MPX 4×MIC added to 24 h biofilm
Experimental: S. aureus ATCC 25923 was cultivated as described above. After culturing in a 37°C incubator for 24 h, MPX (final concentration: 4×MIC) was added to the sample. […] S. aureus was washed 3 times with 0.85% NaCl to remove nucleic acids and other medium components. A LIVE/DEAD BacLight Bacterial Viability L-7012 Kit (Molecular Probes, Eugene, OR, USA), containing two component dyes (SYTO 9 and PI in a 1:1 mixture) in solution, was used prior to microscopy and quantitative assays according to the test instructions. A total of 3 μL of the dye mixture was added to each well, the wells were incubated at room temperature in the dark for 15 min, and the bacterial survival in the biofilm was observed by confocal laser microscopy.
A sterile slides were placed in 6-well cell culture plates and bacteria were allowed to grow naturally on the slides to form a biofilm. Overnight culture broth and fresh broth were added at a volume ratio of 1:100, and incubated at 37°C for 24 h. Different final concentrations of MPX (1×MIC, 4×MIC) were added, incubation was continued. Then, a 2.5% glutaraldehyde solution was added to each well, and the cells were fixed at room temperature for 30 min. The plate was rinsed 3 times with PBS for 10 min each time. Gradient dehydration was performed with increasing concentrations of an ethanol solution (30, 50, 70, 80, 90, 95, and 100%). […]

S. aureus ATCC 25923 [10] = experiment: Electron microscopy (SEM, TEM) of bacterial morphology; format: cell-based, Staphylococcus aureus
Experimental: A sterile slides were placed in 6-well cell culture plates and bacteria were allowed to grow naturally on the slides to form a biofilm. Overnight culture broth and fresh broth were added at a volume ratio of 1:100, and incubated at 37°C for 24 h. Different final concentrations of MPX (1×MIC, 4×MIC) were added, incubation was continued. Then, a 2.5% glutaraldehyde solution was added to each well, and the cells were fixed at room temperature for 30 min. The plate was rinsed 3 times with PBS for 10 min each time. Gradient dehydration was performed with increasing concentrations of an ethanol solution (30, 50, 70, 80, 90, 95, and 100%). After ion spray gold coating, biofilm formation was observed by scanning electron microscopy (SEM) ([17]).
Transmission electron microscopy (TEM) was used to detect the bacterial structure changes after MPX acted on S. aureus ATCC 25923. S. aureus was cultured overnight. MPX was added to different final concentrations. The cells were incubated with shaking at 37°C for 2 h, and then sodium phosphotungstate was used for negative staining. The effect of AMPs on S. aureus was observed. Centrifugation, fixation, dehydration, soaking, embedding and polymerization, sectioning and staining of the culture were performed. Finally, a transmission electron microscope was used to observe the results.

A. pleuropneumoniae = details: previous experiment of the same laboratory; cited from earlier work
Text: S. aureus can cause a wide range of infections, which can lead to organ failure and death in severe cases. It is one of the most common pathogens in communities and hospitals worldwide. The emergence and rapid spread of methicillin-resistant S. aureus strains have produced great challenges for clinical treatment. According to reports, patients with methicillin-resistant S. aureus infection have an increased clinical risk, especially an increased risk of mortality ([18]). Therefore, we must strengthen the prevention of MDR S. aureus infection, find effective alternatives to antibiotics, and ide ...

In the case of INWKGIAAMAKKLL-NH2 [MPX], the “zone of inhibition (agar diffusion)” value (S. aureus ATCC 25923 [1]) is reported as “produced a zone of inhibition”, the “inhibition in killing curve” value (S. aureus ATCC 25923 [2]; MPX 1×MIC, within 5 h) is reported as “relatively stable inhibition” and the “bacteria killed (killing curve)” value (S. aureus ATCC 25923 [2]; MPX 4×MIC, within 1 h, start OD600 approx. 1.0, plate counting, n = 3) is reported as 99.9%. The “effect of temperature on antibacterial activity of MPX (thermal stability)” value (S. aureus [3]; 0, 25, 50, 75 and 100°C for 30 min) was “basically no effect”, the “effect of repeated freezing and thawing on antimicrobial activity of MPX” value (S. aureus [3]; 1 mg/mL MPX frozen and thawed 0–12 times) was “did not change significantly” and the “effect of CaCl2 on antibacterial activity of MPX” value (S. aureus [3]; CaCl2 50, 100, 150, 200 and 250 mmol/mL, incubated 30 min) was “no significant effect”. The “effect of KCl on antibacterial activity of MPX” value (S. aureus [3]; KCl 50, 100, 150, 200 and 250 mmol/mL, incubated 30 min) was “little effect”, the “effect of MgCl2 on antibacterial activity of MPX” value (S. aureus [3]; MgCl2 50, 100, 150, 200 and 250 mmol/mL, incubated 30 min) was “no significant effect” and the “effect of NaCl on antibacterial activity of MPX” value (S. aureus [3]; NaCl 50, 100, 150, 200 and 250 mmol/mL, incubated 30 min) was “little effect”. The “effect of pH on MPX activity” value (S. aureus [3]; pH 4–10 (HCl/NaOH), incubated 30 min) was “basically no effect”, the “effect of proteinase K on antibacterial activity” value (proteinase K; 40 μg/mL proteinase K, agar diffusion, n = 3) was “significantly reduced” and the “residual antibacterial activity after proteinase K” value (proteinase K; 100 μg/mL proteinase K, equal volumes, agar diffusion vs S. aureus ATCC 25923, n = 3) was 66.3%. The “effect of trypsin on antibacterial activity” value (trypsin; 20 μg/mL trypsin, agar diffusion, n = 3) was “significantly reduce”, the “residual antibacterial activity after trypsin” value (trypsin; 100 μg/mL trypsin, equal volumes, agar diffusion vs S. aureus ATCC 25923, n = 3) was 19.6% and the “total protein content of bacterial culture supernatant” value (S. aureus ATCC 25923 [4]) was “significantly higher than that of the control group”. For the same substance, the “NPN fluorescence intensity (membrane integrity)” value (S. aureus ATCC 25923 [5]) was “significantly higher than that of the control group and the antibiotic AMP treatment group”, the “time to membrane depolarization (DiSC3-5)” value (S. aureus ATCC 25923 [6]; 4×MIC, DiSC3-5 1 μM, ex 622 nm / em 670 nm) was no more than 10 s and the “DiSC3-5 fluorescence intensity compared with antibiotic AMP” value (S. aureus ATCC 25923 [6]; comparator AMP 50 μg/mL) was “higher than that produced by the antibiotic AMP”. For the same substance, the “number of PI-stained bacteria” value (S. aureus [7]) was “significantly increased”, the “S. aureus biofilm formation (crystal violet, OD570)” value [8] was “significantly reduced” and the “number of dead bacteria in the S. aureus biofilm (confocal, SYTO 9/PI)” value [9] was “significantly increased”. The “bacterial morphology (SEM/TEM)” value (S. aureus ATCC 25923 [10]; MPX 1×MIC) was “shrink and leak cell contents”, the “cell membrane of S. aureus (TEM)” value (S. aureus ATCC 25923 [10]; MPX 4×MIC, 2 h at 37°C) was “severely damaged” and the “effect of Ca2+ and Mg2+ on killing effect of MPX on A. pleuropneumoniae” value (A. pleuropneumoniae) was “significantly inhibit”.
